Conditions: Liquid; for mass density: isochoric method; for viscosity: Falling or rolling sphere viscometry

CCC(C)C(C)C (stereo not drawn) [2,3-dimethylpentane]
Conditions | mass density [kg/m3] | viscosity [mPa·s]
278.15 K, 100 kPa | 707.6 | –
278.15 K, 1000 kPa | 708.3 | –
278.15 K, 5000 kPa | 711.6 | –
278.15 K, 10000 kPa | 715.5 | –
278.15 K, 15000 kPa | 719.1 | –
278.15 K, 20000 kPa | 722.7 | –
278.15 K, 25000 kPa | 726 | –
278.15 K, 30000 kPa | 729.2 | –
278.15 K, 35000 kPa | 732.2 | –
278.15 K, 40000 kPa | 735.2 | –
278.15 K, 45000 kPa | 738 | –
283.15 K, 100 kPa | 703.2 | –
283.15 K, 1000 kPa | 704 | –
283.15 K, 5000 kPa | 707.4 | –
283.15 K, 10000 kPa | 711.5 | –
283.15 K, 15000 kPa | 715.3 | –
283.15 K, 20000 kPa | 718.9 | –
283.15 K, 25000 kPa | 722.3 | –
283.15 K, 30000 kPa | 725.6 | –
283.15 K, 35000 kPa | 728.7 | –
283.15 K, 40000 kPa | 731.7 | –
283.15 K, 45000 kPa | 734.6 | –
293.15 K, 100 kPa | 694.9 | –
293.15 K, 1000 kPa | 695.7 | –
293.15 K, 5000 kPa | 699.3 | –
293.15 K, 10000 kPa | 703.6 | –
293.15 K, 15000 kPa | 707.7 | –
293.15 K, 20000 kPa | 711.5 | –
293.15 K, 25000 kPa | 715.1 | –
293.15 K, 30000 kPa | 718.6 | –
293.15 K, 35000 kPa | 721.9 | –
293.15 K, 40000 kPa | 725 | –
293.15 K, 45000 kPa | 728 | –
303.15 K, 100 kPa | 686.3 | 0.356
303.15 K, 1000 kPa | 687.2 | 0.36
303.15 K, 5000 kPa | 691.1 | 0.377
303.15 K, 10000 kPa | 695.7 | 0.398
303.15 K, 15000 kPa | 700 | 0.419
303.15 K, 20000 kPa | 704.1 | 0.441
303.15 K, 25000 kPa | 707.9 | 0.462
303.15 K, 30000 kPa | 711.6 | 0.485
303.15 K, 35000 kPa | 715 | 0.507
303.15 K, 40000 kPa | 718.3 | 0.53
303.15 K, 45000 kPa | 721.5 | 0.553
303.15 K, 50000 kPa | – | 0.576
303.15 K, 55000 kPa | – | 0.6
303.15 K, 60000 kPa | – | 0.624
313.15 K, 100 kPa | 677.6 | 0.324
313.15 K, 1000 kPa | 678.6 | 0.328
313.15 K, 5000 kPa | 682.8 | 0.343
313.15 K, 10000 kPa | 687.7 | 0.361
313.15 K, 15000 kPa | 692.3 | 0.38
313.15 K, 20000 kPa | 696.6 | 0.399
313.15 K, 25000 kPa | 700.7 | 0.418
313.15 K, 30000 kPa | 704.5 | 0.438
313.15 K, 35000 kPa | 708.2 | 0.458
313.15 K, 40000 kPa | 711.6 | 0.479
313.15 K, 45000 kPa | 715 | 0.5
313.15 K, 50000 kPa | – | 0.522
313.15 K, 55000 kPa | – | 0.544
313.15 K, 60000 kPa | – | 0.566
323.15 K, 100 kPa | 668.7 | 0.29
323.15 K, 1000 kPa | 669.8 | 0.294
323.15 K, 5000 kPa | 674.3 | 0.308
323.15 K, 10000 kPa | 679.6 | 0.326
323.15 K, 15000 kPa | 684.5 | 0.344
323.15 K, 20000 kPa | 689.1 | 0.362
323.15 K, 25000 kPa | 693.4 | 0.381
323.15 K, 30000 kPa | 697.5 | 0.399
323.15 K, 35000 kPa | 701.3 | 0.418
323.15 K, 40000 kPa | 705 | 0.437
323.15 K, 45000 kPa | 708.4 | 0.457
323.15 K, 50000 kPa | – | 0.476
323.15 K, 55000 kPa | – | 0.496
323.15 K, 60000 kPa | – | 0.517
333.15 K, 100 kPa | 659.7 | 0.262
333.15 K, 1000 kPa | 660.9 | 0.266
333.15 K, 5000 kPa | 665.8 | 0.28
333.15 K, 10000 kPa | 671.5 | 0.298
333.15 K, 15000 kPa | 676.7 | 0.316
333.15 K, 20000 kPa | 681.6 | 0.334
333.15 K, 25000 kPa | 686.2 | 0.352
333.15 K, 30000 kPa | 690.5 | 0.369
333.15 K, 35000 kPa | 694.5 | 0.387
333.15 K, 40000 kPa | 698.3 | 0.404
333.15 K, 45000 kPa | 702 | 0.422
333.15 K, 50000 kPa | – | 0.439
333.15 K, 55000 kPa | – | 0.457
333.15 K, 60000 kPa | – | 0.474
343.15 K, 100 kPa | 650.6 | 0.244
343.15 K, 1000 kPa | 651.9 | 0.247
343.15 K, 5000 kPa | 657.2 | 0.26
343.15 K, 10000 kPa | 663.3 | 0.276
343.15 K, 15000 kPa | 668.9 | 0.292
343.15 K, 20000 kPa | 674.1 | 0.309
343.15 K, 25000 kPa | 678.9 | 0.325
343.15 K, 30000 kPa | 683.5 | 0.342
343.15 K, 35000 kPa | 687.7 | 0.359
343.15 K, 40000 kPa | 691.7 | 0.376
343.15 K, 45000 kPa | 695.5 | 0.393
343.15 K, 50000 kPa | – | 0.41
343.15 K, 55000 kPa | – | 0.428
343.15 K, 60000 kPa | – | 0.445
353.15 K, 100 kPa | 641.3 | 0.232
353.15 K, 1000 kPa | 642.7 | 0.234
353.15 K, 5000 kPa | 648.5 | 0.246
353.15 K, 10000 kPa | 655.1 | 0.261
353.15 K, 15000 kPa | 661.1 | 0.276
353.15 K, 20000 kPa | 666.6 | 0.291
353.15 K, 25000 kPa | 671.7 | 0.306
353.15 K, 30000 kPa | 676.5 | 0.321
353.15 K, 35000 kPa | 680.9 | 0.336
353.15 K, 40000 kPa | 685.1 | 0.35
353.15 K, 45000 kPa | 689.1 | 0.365
353.15 K, 50000 kPa | – | 0.381
353.15 K, 55000 kPa | – | 0.395
353.15 K, 60000 kPa | – | 0.411
